The values that follow come from patent EP4700024A1, “CYCLOPENTYLPYRAZOLAMINE DERIVATIVE AND USE THEREOF” (Chia Tai Tianqing Pharmaceutical Group Co., Ltd., priority 2023, dated 2024).

Read-outs that look alike come from different tables or passages of the source.

One experiment concerns the target CDK2 CycE1 kinase (Homo sapiens, UniProt P24941). Description: Determination of inhibitory activity against CDK2 CycE1 kinase. It is filed as biochemical. Here is the method:
1.2 Determination of inhibitory activity against CDK2 CycE1 kinase
CDK2 CycEl kinase solution (concentration: 0.015 ng/µL) was added to assay wells at 6 µL/well, and different compounds dissolved in DMSO were added to the assay wells separately using a nanoliter pipettor, such that the final concentrations of the compounds were 300 nM to 0.07 nM. The wells were set in duplicate, and a control well was set. After a 30-min incubation of the above system, ATP (concentration: 50 µM or 5000 µM) was mixed with ULight-Myelin Basic Protein Peptide substrate (manufacturer: PerkinElmer, concentration: 0.25 µM) in a ratio of 1:1, and the mixture was added to the assay wells at 4 µL/well. The resultant mixture was left to react at room temperature for 2 h, and then 5 µL of EDTA was added to terminate the reaction, followed by the addition of 5 µL of a detection antibody (manufacturer: PerkinElmer, concentration: 8 nM). The mixture was incubated at room temperature for 1 h. The assay was performed using a PerkinElmer Envision multifunctional microplate reader (excitation: 320 nm, emission: 615 nm/665 nm), and IC50 was calculated by four-parameter fitting. […] Table 1: Inhibitory activity of compound against CDK2 CycA2 and CDK2 CycEl kinases

The next experiment deals with CDK2/CycA2 kinase (Homo sapiens, UniProt P24941). Description: Determination of inhibitory activity against CDK2/CycA2 kinase. Format: biochemical. Here is the method:
1.1 Determination of inhibitory activity against CDK2/CycA2 kinase
CDK2/CycA2 kinase solution (concentration: 0.078 ng/µL) was added to assay wells at 6 µL/well, and different compounds dissolved in DMSO were added to the assay wells separately using a nanoliter pipettor, such that the final concentrations of the compounds were 1000 nM to 0.244 nM. The wells were set in duplicate, and a control well was set. After a 30-min incubation of the above system, ATP (concentration: 50 µM or 5000 µM) was mixed with ULight-Myelin Basic Protein Peptide substrate (manufacturer: PerkinElmer, concentration: 0.25 µM) in a ratio of 1:1, and the mixture was added to the assay wells at 4 µL/well. The resultant mixture was left to react at room temperature for 2 h, and then 5 µL of EDTA was added to terminate the reaction, followed by the addition of 5 µL of a detection antibody (manufacturer: PerkinElmer, concentration: 8 nM). The mixture was incubated at room temperature for 1 h. The assay was performed using a PerkinElmer Envision multifunctional microplate reader (excitation: 320 nm, emission: 615 nm/665 nm), and IC50 was calculated by four-parameter fitting.

The mark [1] stands for this setting: CDK2/CycA2 10 µM ATP (kinase) IC50 (nM).
Where [2] appears, read: read-out: CDK2/CycE1 10 µM ATP (kinase) IC50.
The mark [3] stands for this setting: read-out: CDK2/CycA2 10 µM ATP (kinase) IC50.

Consider `O=C(NC1CCC1)OC1CCC(c2cc(Nc3ccc4c(c3)CS(=O)(=O)C4)[nH]n2)C1` (centres unmarked) [Compound 1], for which the IC50 against CDK2 CycE1 kinase (10 µM ATP (kinase)) and against CDK2/CycA2 kinase (setting [1]) was less than 10 nM in each case. For the molecule `CC(C)NC(=O)OC1CCC(c2cc(Nc3ccc4c(c3)C[S+]([O-])C4)n[nH]2)C1` (centres unmarked) [Compound 2], the IC50 on CDK2 CycE1 kinase (setting [2]) was less than 10 nM; on CDK2/CycA2 kinase (setting [3]), 10 to 50 nM. Taken in the same sequence, the figures for `CC(NC(=O)OC1CCC(c2cc(Nc3ccc4c(c3)CS(=O)(=O)C4)[nH]n2)C1)C1CC1` (centres unmarked) [Compound 3] were less than 10 nM and less than 10 nM.

Consider `CC(C)(C)NC(=O)OC1CCC(c2cc(Nc3ccc4c(c3)CS(=O)(=O)C4)[nH]n2)C1` (centres unmarked) [Compound 4], for which the IC50 against CDK2 CycE1 kinase (10 µM ATP (kinase)) and against CDK2/CycA2 kinase (setting [1]) was less than 10 nM throughout.

As for `C[C@H](NC(=O)O[C@@H]1CC[C@H](c2cc(Nc3ccc4c(c3)CS(=O)(=O)C4)[nH]n2)C1)C1CC1` [Compound 5], the IC50 at CDK2 CycE1 kinase (setting [2]) and on CDK2/CycA2 kinase (setting [3]) was less than 10 nM in each case.

For `CC(C)(CCO)NC(=O)OC1CCC(c2cc(Nc3ccc4c(c3)CS(=O)(=O)C4)[nH]n2)C1` (centres unmarked) [Compound 6], the IC50 is less than 10 nM at CDK2 CycE1 kinase (10 µM ATP (kinase)) and 10 to 50 nM against CDK2/CycA2 kinase (setting [1]). Consider `O=C(NC12CC(C1)C2)OC1CCC(c2cc(Nc3ccc4c(c3)CS(=O)(=O)C4)[nH]n2)C1` (centres unmarked) [Compound 7], for which the IC50 at CDK2 CycE1 kinase (10 µM ATP (kinase)) and against CDK2/CycA2 kinase (setting [1]) was less than 10 nM in each case.

As for `COCc1cc(Nc2cc([C@H]3CC[C@@H](OC(=O)NC(C)C)C3)n[nH]2)cc2c1C(C)S(=O)(=O)C2` (some centres unmarked) [Compound 8], the IC50 on CDK2 CycE1 kinase (setting [2]) is 10 to 50 nM.

With `CCNC(=O)OC1CCC(c2cc(Nc3ccc4c(c3)CS(=O)(=O)C4)[nH]n2)C1` (centres unmarked) [Compound 10], the IC50 at CDK2 CycE1 kinase (10 µM ATP (kinase)) and on CDK2/CycA2 kinase (setting [1]) was less than 10 nM in each case. Consider `CC(C)NC(=O)OC1CCC(c2cc(Nc3cc(F)c4c(c3)CS(=O)(=O)C4)[nH]n2)C1` (centres unmarked) [Compound 11], for which the IC50 against CDK2 CycE1 kinase (10 µM ATP (kinase)) and on CDK2/CycA2 kinase (setting [1]) was less than 10 nM in each case. For the molecule `O=C(NCC(F)(F)F)OC1CCC(c2cc(Nc3ccc4c(c3)CS(=O)(=O)C4)[nH]n2)C1` (centres unmarked) [Compound 12], the IC50 against CDK2 CycE1 kinase (10 µM ATP (kinase)) is less than 10 nM; at CDK2/CycA2 kinase (setting [1]), 10 to 50 nM. Take `O=C(NCC(F)F)OC1CCC(c2cc(Nc3ccc4c(c3)CS(=O)(=O)C4)[nH]n2)C1` (centres unmarked) [Compound 13]: the IC50 against CDK2 CycE1 kinase (10 µM ATP (kinase)) and against CDK2/CycA2 kinase (setting [1]) was less than 10 nM in each case. As to `CC(C)(C)NC(=O)OC1CCC(c2cc(Nc3ccc4c(c3)C[S+]([O-])C4)n[nH]2)C1` (centres unmarked) [Compound 14], the IC50 at CDK2 CycE1 kinase (10 µM ATP (kinase)) and against CDK2/CycA2 kinase (setting [1]) was less than 10 nM each time. At CDK2 CycE1 kinase (10 µM ATP (kinase)), `CC(C)NC(=O)OC1CCC(c2cc(Nc3ccc4c(c3)CCS4(=O)=O)n[nH]2)C1` (centres unmarked) [Compound 15] returned an IC50 of less than 10 nM. Regarding `O=C(NC12CC(C1)C2)OC1CCC(c2cc(Nc3ccc4c(c3)C[S+]([O-])C4)n[nH]2)C1` (centres unmarked) [Compound 16], the IC50 against CDK2 CycE1 kinase (10 µM ATP (kinase)) and at CDK2/CycA2 kinase (setting [1]) was less than 10 nM throughout. With `CC1(C)CCN1C(=O)OC1CCC(c2cc(Nc3ccc4c(c3)CS(=O)(=O)C4)[nH]n2)C1` (centres unmarked) [Compound 17], the IC50 on CDK2 CycE1 kinase (10 µM ATP (kinase)) and at CDK2/CycA2 kinase (setting [1]) was less than 10 nM in each case. As to `CC1(C)CCN1C(=O)OC1CCC(c2cc(Nc3ccc4c(c3)CS(=O)(=O)C4)[nH]n2)C1` (centres unmarked) [Compound 18], on CDK2/CycA2 kinase (setting [3]), the IC50 is less than 10 nM. In the case of `CCNC(=O)OC1CCC(c2cc(Nc3ccc4c(c3)C[S+]([O-])C4)[nH]n2)C1` (centres unmarked) [Compound 19], the IC50 against CDK2 CycE1 kinase (10 µM ATP (kinase)) is 10 to 50 nM. With `CC1CN(C)CCN1C(=O)OC1CCC(c2cc(Nc3ccc4c(c3)C[S+]([O-])C4)[nH]n2)C1` (centres unmarked) [Compound 20], on CDK2 CycE1 kinase (10 µM ATP (kinase)), the IC50 lay within 10 to 50 nM.

Regarding `CC1CN(C)CCN1C(=O)OC1CCC(c2cc(Nc3ccc4c(c3)CS(=O)(=O)C4)[nH]n2)C1` (centres unmarked) [Compound 21], the IC50 on CDK2 CycE1 kinase (10 µM ATP (kinase)) and on CDK2/CycA2 kinase (setting [1]) was less than 10 nM each time.

Regarding `CC(C)NC(=O)OC1CCC(c2cc(Nc3ccc4c(c3)C[S+]([O-])C4)n[nH]2)C1` (centres unmarked) [Compound 22], the IC50 is less than 10 nM against CDK2 CycE1 kinase (10 µM ATP (kinase)) and 10 to 50 nM on CDK2/CycA2 kinase (setting [1]). As to `CC(C)NC(=O)OC1CCC(c2cc(Nc3ccc4c(c3)C[S+]([O-])C4)n[nH]2)C1` (centres unmarked) [Compound 23], the IC50 on CDK2 CycE1 kinase (setting [2]) is less than 10 nM.

Turning to `O=C(NC1CC1)OC1CCC(c2cc(Nc3ccc4c(c3)C[S+]([O-])C4)[nH]n2)C1` (centres unmarked) [Compound 24], the IC50 on CDK2 CycE1 kinase (10 µM ATP (kinase)) lay within 10 to 50 nM. With `CC1(NC(=O)OC2CCC(c3cc(Nc4ccc5c(c4)C[S+]([O-])C5)[nH]n3)C2)CC1` (centres unmarked) [Compound 25], the figures for the IC50 at CDK2 CycE1 kinase (10 µM ATP (kinase)) and against CDK2/CycA2 kinase (setting [1]) were less than 10 nM and 10 to 50 nM, respectively. Taken in the same sequence, the figures for `CC1(C)CCN1C(=O)OC1CCC(c2cc(Nc3ccc4c(c3)C[S+]([O-])C4)[nH]n2)C1` (centres unmarked) [Compound 26] were less than 10 nM and less than 10 nM.

Regarding `CC1(C)CCN1C(=O)OC1CCC(c2cc(Nc3ccc4c(c3)C[S+]([O-])C4)[nH]n2)C1` (centres unmarked) [Compound 29], the IC50 at CDK2 CycE1 kinase (setting [2]) and at CDK2/CycA2 kinase (setting [1]) was less than 10 nM each time.

With `CC1(C)CCN1C(=O)OC1CCC(c2cc(Nc3ccc4c(c3)C[S+]([O-])C4)[nH]n2)C1` (centres unmarked) [Compound 30], the IC50 on CDK2 CycE1 kinase (setting [2]) is less than 10 nM; against CDK2/CycA2 kinase (setting [1]), 10 to 50 nM.

As to `CC1(NC(=O)OC2CCC(c3cc(Nc4ccc5c(c4)C[S+]([O-])C5)[nH]n3)C2)CC1` (centres unmarked) [Compound 31], the IC50 on CDK2 CycE1 kinase (setting [2]) and at CDK2/CycA2 kinase (setting [1]) was less than 10 nM in each case.

As to `CC1(NC(=O)OC2CCC(c3cc(Nc4ccc5c(c4)C[S+]([O-])C5)[nH]n3)C2)CC1` (centres unmarked) [Compound 32], on CDK2 CycE1 kinase (setting [2]), the IC50 was less than 10 nM. The same measure, in the same setting: the result for `O=C(NC12CC(C1)C2)OC1CCC(c2cc(Nc3ccc4c(c3)C[S+]([O-])C4)n[nH]2)C1` (centres unmarked) [Compound 33] reads less than 10 nM; that for `O=C(NC12CC(C1)C2)OC1CCC(c2cc(Nc3ccc4c(c3)C[S+]([O-])C4)n[nH]2)C1` (centres unmarked) [Compound 34], less than 10 nM; that for `CC(C)(C)NC(=O)OC1CCC(c2cc(Nc3ccc4c(c3)C[S+]([O-])C4)n[nH]2)C1` (centres unmarked) [Compound 35], less than 10 nM. The same measure, in the same setting: the result for `CC(C)(C)NC(=O)OC1CCC(c2cc(Nc3ccc4c(c3)C[S+]([O-])C4)n[nH]2)C1` (centres unmarked) [Compound 36] reads less than 10 nM; that for `CCNC(=O)OC1CCC(c2cc(Nc3ccc4c(c3)C[S+]([O-])C4)[nH]n2)C1` (centres unmarked) [Compound 37], 10 to 50 nM. On to `O=C(NC1CC1F)OC1CCC(c2cc(Nc3ccc4c(c3)C[S+]([O-])C4)[nH]n2)C1` (centres unmarked) [Compound 41], for which the IC50 against CDK2 CycE1 kinase (10 µM ATP (kinase)) is less than 10 nM.
